Results reported in patent US6479466B1, “Compositions for treating viral infections, and methods therefor” (University of Maryland, priority 1999, dated 2002).
Where a name gives a salt, the structure may show the parent alone. Read-outs that look alike come from different tables or passages of the source.

Key:
[1] = test system: mutations 65R, 74V, 184V, and 115F in the RT gene; details: cited from earlier work
HTLV-IIIB [2] = assay: p24 antigen in infected resting T-lymphocytes exposed to drugs for 6 days before PHA activation; type: cell-based, HIV-1; details: ddC 0.1 μM or AZT 4 μM in combination with RV
Procedure: The effect of RV and nucleoside analogues in infected resting T-lymphocytes was evaluated in the present example. Purified resting cells were used. Absence of activated lymphocytes in the preparation was determined by incubation of the cells in the presence of a monoclonal antibody directed against the low affinity IL-2 receptor CD25 (Pharmingen, San Diego, Calif.), and subsequent analysis by flow cytometry. […] Cells were infected with HTLV-IIIB at a multiplicity of infection of 10^4 TCID50/10^6 cells for 3 hours. A high multiplicity of infection (m.o.i.) was used because of a reported short half life of HIV-1 unintegrated DNA in infected resting lymphocytes. Infected cells were washed 3 times with PBS to remove virus excess and resuspended in 10% FBS RPMI medium supplemented with drugs. To ensure that any antiviral activity exerted by the drugs occurred during the resting state, drugs were removed six days after infection by washing with PBS 3 times, and cells were activated by culturing in the presence of PHA for 2 days. Cells were then cultured in IL-2 medium without drugs, and supernatants were monitored for the presence of p24 antigen. Cultures were maintained for 20 days.
Purified resting T-lymphocytes from a seronegative donor were infected with HTLV-IIIB at the high multiplicity of infection and cultured in the presence of 5 or 10 μM RV plus ddI (0, 0.25, 0.5 μM), ddC (0, 0.1 μM) or AZT (0, 4 μM) for 6 days. Concentrations used for ddC and AZT correspond to the highest, nontoxic concentration attainable in plasma of treated individuals. […] On day 6 after infection, drugs were washed away and cells were activated with PHA. The extent of viral replication was evaluated on day 6 (prior to PHA activation) and days 14 and 20 after infection. On day 6 very low amounts of p24 antigen could be detected under every condition tested, likely representing residual virus from the infecting inoculum. […] No toxicity was found by the MTT assay in uninfected culture controls treated with 5 μM RV and 0.5 μM ddI for 20 days under the same conditions.

HTLV-IIIB [3] = assay: p24 antigen production in PHA-activated PBMCs infected with HTLV-IIIB; type: cell-based, HIV-1; details: for IC90: read-out: IC90 (concentration of nucleoside analog that reduced the p24 antigen value of the untreated control by 90%)
Text: The antiviral activities of RV alone and in combination with nucleoside analogs were investigated in PHA-stimulated PBMCs from seronegative donors. RV, ddC, ddI, and AZT were purchased from Sigma (St. Louis, Mo.). The HIV-1 T-cell line adapted isolate HTLV-IIIB was obtained from Dr. Gallo, at the National Institutes of Health AIDS Research and Reference Reagent Program (Catalog #398, Rockville, Md.). Primary strains of HIV-1 were isolated by coculturing 10^7 patient PBMC with an equal number of PHA-stimulated PBMC from a normal donor. Titration of stocks and MT-2 phenotype determination were carried out as described (ACTG Virology Manual, NIH Pub No. 94 3828, 1994). The SI phenotype was determined by assessing viral growth and syncytia formation in the MT-2 cell line obtained from Dr. Richman at the National Institutes of Health AIDS Research and Reference Reagent Program (Catalog #237, Rockville, Md.).
Primary PBMCs were separated from whole blood of HIV seronegative donors by density centrifugation over Ficoll-Hypaque (Sigma). The culture medium consisted of RPMI supplemented with 10% fetal bovine serum (FBS), 2 mM glutamine and penicillin/streptomycin (Gibco, Grand Island, N.Y.).
For infection studies involving PBMCs, cells were stimulated with 2.5 or 10 μg/ml phytohemagglutinin (PHA; Boehringer Mannheim, Indianapolis, Ind.) for 3 days. Stimulated PBMCs were infected by incubation with virus at a multiplicity of infection of 1000 TCID50/10^6 PBMC for 2 hours. PBMCs were then washed three times with PBS and cultured in 5% CO2 at 37° C., in RPMI/10% FBS supplemented with 10 units/ml IL-2 (Boehringer Mannheim) and drugs as appropriate. PBMCs were seeded in 96-well flat-bottom plates at a density of 2×10^5 PBMCs/200 μl. Following 3 days of culture half of the medium was replaced with fresh medium containing IL-2 and drugs. After 7 days of culture, HIV-1 p24 antigen production in the culture supernatant was assayed by ELISA (Coulter, Hialeah, Fla.). The concentration of nucleoside analog, alone and in combination with resveratrol, that reduced the p24 antigen value of the untreated control by 90% (IC90) was calculated by using nonparametric regression analysis. The analysis used the median-effect equation, Fa=1/[1+(Dm/D)]^m, where D is the dose, Fa is the fraction affected, and Dm is the dose required to produce the median effect.
Cells were infected with the T-cell tropic isolate HTLV-IIIB for 2 hours, and then cultured in varying concentrations of RV with or without nucleoside analogs. Virus replication was measured by p24 antigen production by ELISA using a standard commercial kit in the culture supernatants on days 7 and 10 after infection.
Activated PBMCs infected with HTLV-IIIB were cultured in the presence of ddI plus HU (100 μM) or RV (5 and 10 μM). […] Virus production in the presence of the different drug concentrations was evaluated on day 7 after infection.

PHA-activated PBMCs = assay: 3H-thymidine incorporation (DNA synthesis) assay in proliferating PBMCs; type: cell-based, human; details: HU 100 μM; day 2
Procedure: For example, a thymidine incorporation assay using PBMC's may be carried out as follows. PBMC's are suspended, then 0.1 ml (100,000) of cells are added to each designated well of a 96-well plate. The plates are placed into a 37° C., 5% CO2, 95% humid incubator for the predetermined incubation periods—normally 2 and 5 days. At the end of the incubation period, and at a standard time prior to harvesting the plate (6-18 hours), 1.0-1.5 μCi (20 μl of 50-75 mCi/ml in complete medium) of [^3H]-labeled methyl thymidine is added to each well of the assay. The plates are then incubated for the remaining 6-18 hours. At the end of the [^3H]-thymidine pulse, the plates are harvested onto filter paper using a semi-automated multi-well harvester. The filter paper containing bound DNA may be dried using either ethanol or by moderate microwave heating. The filter paper samples are counted in a scintillation counter using standard procedures.

PHA-stimulated PBMCs = assay: MTT cell proliferation assay in PHA-stimulated PBMCs; type: cell-based, human; details: human, 5 days, 100 μM
Procedure: The effect of RV and […] on PBMC proliferation at the concentrations shown to enhance the anti-HIV effect of ddI were examined. Cellular proliferation in culture in the presence or absence of drugs was measured by commercial MTT assay, according to the manufacturer's instructions (Boehringer Mannheim). Cell viability was determined by trypan blue staining.
Proliferation was measured on PHA-stimulated PBMCs cultured in the presence of IL-2, 2 μM ddI, and RV or HU. The MTT assay was performed on days 2 and 5 (FIG. 8), and days 2 and 7 (FIG. 20) after the addition of the drugs. […] On day 5, RV at 10 μM inhibited proliferation by 30%, whereas HU inhibited proliferation by 40 to 50%, depending on the donor.
Proliferating PBMCs were cultured in the presence of RV or HU for 5 days. On day 2 and 5 an MTT assay and a ^3H-thymidine incorporation assay were performed. The MTT is a […] assay that measures cellular metabolic activity and directly correlates to the number of cells in the culture. The ^3H-thymidine incorporation assay relies on the incorporation of the radioactive nucleoside ^3H-thymidine into newly synthesized DNA. […] These differences between the effects of RV and HU were even more striking in the MTT and ^3H-thymidine incorporation assays conducted on day 5 (FIG. 12 and FIG. 13, respectively).

## Nc1nc(NC2CC2)c2ncn([C@H]3C=C[C@@H](CO)C3)c2n1 [abacavir, (1C, CiS)-4-(2-amino-6-(cyclopropylamino)—9H-purin-9-yL)-2-cyclopentene-1-methanol sulfate (salt) (2:1)]
[1]; mutants harboring 2 or 3 of these mutations
  resistance to the drug: approximately 10 fold
[1]; single mutations 65R, 74V, 184V, and 115F
  decrease in susceptibility: 2-3 fold

## Nc1ccn([C@H]2CC[C@@H](CO)O2)c(=O)n1 [ddC, 2′,3′-dideoxycytosine]
HTLV-IIIB [2]
  virus replication after PHA activation: failed to suppress virus replication
HTLV-IIIB [3]; in combination with 5 μM RV
  reduction of IC90 value: 3.3 fold
HTLV-IIIB [3]; in combination with 5 μM RV, day 7
  IC90: 80 nM
HTLV-IIIB [3]; in the presence of 10 μM RV
  reduction of IC90 value: 5.4 fold
HTLV-IIIB [3]; nucleoside analog alone, day 7
  IC90: 270 nM

## Cc1cn([C@H]2C[C@H](N=[N+]=[N-])[C@@H](CO)O2)c(=O)[nH]c1=O [AZT, 3′-azido-2′,3′-dideoxythymidine]
HTLV-IIIB [2]
  virus replication after PHA activation: failed to suppress virus replication
HTLV-IIIB [3]; Human immunodeficiency virus 1, IIIB, PBMC, 168 h, in combination with 5 μM RV, day 7
  IC90: 15 nM
HTLV-IIIB [3]; Human immunodeficiency virus 1, IIIB, PBMC, 168 h, nucleoside analog alone, day 7
  IC90: 25 nM
HTLV-IIIB [3]; in combination with 5 μM RV
  reduction of IC90 value: 1.6 fold
HTLV-IIIB [3]; in the presence of 10 μM RV
  reduction of IC90 value: 3.1 fold

## NC(=O)NO [HU, Hydroxyurea]
PHA-activated PBMCs
  3H-thymidine incorporation (DNA synthesis): much lower than the untreated control
PHA-stimulated PBMCs
  inhibition of proliferation: 40 to 50%
HTLV-IIIB [3]; HU 100 μM alone, day 7
  reduction of virus production: approximately 20%
HTLV-IIIB [3]; Human immunodeficiency virus 1, IIIB, PBMC, 168 h, 100 μM HU combined with 0.5 μM ddI, day 7, read-out: inhibition of virus replication
  inhibition at 100 µM: > 99%
HTLV-IIIB [3]; Human immunodeficiency virus 1, IIIB, PBMC, 168 h, 100 μM HU in combination with 0.25 μM ddI, day 7, read-out: inhibition of HIV-1 replication
  inhibition at 100 µM: 91%
